Test results from PubChem BioAssay (NCI).
Several values for one entry are separate records, joined by “and”; a condition that tells them apart may be missing. Equal values may be shown once.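 96-well plates; 48 h exposure; 5 concentrations. Endpoints by linear interpolation between flanking doses. Not reached: highest tested concentration assigned. The concentration for 50% growth inhibition is given as GI50. TGI marks complete inhibition of growth.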

Experiments:
Test in all cases: growth of human tumour cells (NCI), 48 h
[1] = tested on: MDA-MB-231 breast
[2] = tested on: NCI-H460 lung
[3] = tested on: HCC-2998 colon
[4] = tested on: SN12C renal
[5] = tested on: K-562 leukemia
[6] = tested on: SNB-75 CNS
[7] = tested on: OVCAR-5 ovarian
[8] = tested on: A498 renal
[9] = tested on: SR leukemia
[10] = tested on: U251 CNS

| Structure (SMILES) | GI50 [1] | TGI [1] | GI50 [2] | TGI [2] | GI50 [3] | TGI [3] | GI50 [4] | TGI [4] | GI50 [5] | TGI [5] | GI50 [6] | TGI [6] | GI50 [7] | TGI [7] | GI50 [8] | TGI [8] | GI50 [9] | TGI [9] | TGI [10] | GI50 [10] |
| --- | --- | --- | --- | --- | --- | --- | --- | --- | --- | --- | --- | --- | --- | --- | --- | --- | --- | --- | --- | --- |
| CN(C)CCNc1cccc2sc3ccc(O)cc3c(=O)c12 | 1.48 µM | 3.72 µM | 0.548 µM | 2.47 µM | 1.56 µM | 3.1 µM | 2.54 µM | 13.6 µM | 2.4 µM | 5.6 µM | 2.33 µM | 12.2 µM | 7.32 µM | 22.8 µM | 10.8 µM | 24.1 µM | 1.08 µM | 4.37 µM |  |  |
| CN(C)CCNC(=O)c1cccc(CO)c1[N+](=O)[O-] |  | > 100 µM |  | > 100 µM |  | > 100 µM |  | > 100 µM |  | > 100 µM |  | > 100 µM |  | > 100 µM |  | > 100 µM |  | > 100 µM | > 100 µM |  |
| CCC(=O)N1C/C(=C/c2ccc(OC)cc2)C(=O)/C(=C/c2ccc(OC)cc2)C1 | 1.98 µM | 4.28 µM | 2.05 µM | 4.48 µM | 1.93 µM | 3.42 µM | 1.78 µM | 3.51 µM | 1.19 µM | > 100 µM | 5.91 µM | > 100 µM | 1.86 µM | 3.75 µM | 1.92 µM | 3.51 µM | 0.382 µM | > 100 µM | 4.08 µM | 1.78 µM |
| OC1CCC(Oc2cccc3cnc(Nc4ccc5nc[nH]c5c4)nc23)CC1 (stereo unspecified) | 0.389 µM | 19.8 µM | 0.275 µM | 11.8 µM | 0.708 µM | 9.09 µM | 0.392 µM | 72.7 µM | 0.536 µM | 19.3 µM | 0.12 µM | 2.21 µM | 0.327 µM | 30.7 µM | 0.335 µM | 0.866 µM | 0.143 µM | 0.671 µM | 15.7 µM | 0.428 µM |
| N#C/C(=C(\O)C(=O)O)c1ccc(-c2cccc3ccccc23)cc1 |  | > 100 µM |  | > 100 µM |  |  |  | > 100 µM |  | > 100 µM |  | > 100 µM |  | > 100 µM |  | > 100 µM |  | > 100 µM | > 100 µM |  |
| CC(O)C(NC(=O)C(CS)NC(=O)C(CO)NC(=O)C(CCCCN)NC(=O)C(Cc1c[nH]c2ccccc12)NC(=O)C(Cc1ccc(O)cc1)NC(=O)C(CS)NC(=O)C(N)Cc1ccccc1)C(N)=O (stereo unspecified) |  | > 25 µM |  | > 25 µM and 53.8 µM |  | > 25 µM and 57.7 µM | 28.6 µM | > 25 µM and 84.2 µM | 17.8 µM | > 25 µM and 32.1 µM |  | 62.5 µM |  | > 25 µM |  | > 25 µM and 61.7 µM | 29.7 µM | > 25 µM and 86.5 µM | > 25 µM and 63.1 µM |  |
| CC1=CC[C@@H]2C(C)(C)[C@@H](O)CC[C@@]2(C)[C@@H]1COc1ccc2ccc(=O)oc2c1 | 13.9 µM | 43.3 µM | 7.68 µM | 25.7 µM | 12.7 µM | 27.4 µM | 4.77 µM | 22.7 µM | 3.28 µM | 27.5 µM |  |  | 16.6 µM | 42.3 µM | 0.905 µM | 19.9 µM | 7.92 µM | 42 µM | 27.9 µM | 8.82 µM |
| CCOC(=O)/C=C/c1ccc(C(=O)OCC)[nH]1 | 13.7 µM | > 100 µM | 3.08 µM | 14.5 µM | 12.3 µM | 77.3 µM | 5.11 µM | > 100 µM | 0.649 µM | > 100 µM | 2.82 µM | 35.9 µM | 19.5 µM | > 100 µM | 1.61 µM | 12.1 µM | 0.676 µM | > 100 µM | > 100 µM | 3.92 µM |
| CN(C)CN1C(=O)S/C(=C2\C(=O)N(CN(C)C)c3ccccc32)C1=O |  | > 100 µM |  | > 100 µM |  | > 100 µM |  | 69.4 µM |  |  |  | 74.5 µM |  | > 100 µM |  | > 100 µM |  | 45.3 µM | > 100 µM |  |
| CC[C@@]1(OC(=O)CCC(=O)O)C(=O)OCc2c1cc1n(c2=O)Cc2cc3ccccc3nc2-1 |  | > 27.6 µM |  | 0.592 µM |  | 4.29 µM |  | 4.22 µM |  | > 61.8 µM |  | 2.54 µM |  | 11.9 µM |  | 1.27 µM |  | 0.03 µM | 2.18 µM |  |
| O=C1/C(=C\c2cccs2)Oc2ccccc21 |  | > 100 µM |  | > 100 µM |  | > 100 µM |  | > 100 µM |  | > 100 µM |  | > 100 µM |  | > 100 µM |  | > 100 µM |  | > 100 µM | > 100 µM |  |
| COc1ccc([N+](=O)[O-])c2c(NCC(O)CO)ccnc12 (stereo unspecified) |  | > 100 µM |  | 52 µM |  | > 100 µM |  | > 100 µM |  | > 100 µM |  | > 100 µM |  | > 100 µM |  | 76.9 µM |  | > 100 µM | > 100 µM |  |
| O=C(O)c1nnsc1COCc1ccccc1 |  | > 100 µM |  | > 100 µM |  |  |  | > 100 µM |  | > 100 µM |  | > 100 µM |  | > 100 µM |  | > 100 µM |  | > 100 µM | > 100 µM |  |
| c1cc(-c2sc(-c3ccncc3)c(-c3ccncc3)c2-c2ccncc2)ccn1 |  | 31.2 µM |  | 23.8 µM |  | 19.6 µM |  | 46.5 µM |  | > 100 µM |  | 40.9 µM |  | 47.2 µM |  | 26.7 µM |  | > 100 µM | 27.8 µM |  |
| O=c1c(OC/C(=N/O)c2ccccc2)c(-c2ccccc2)oc2ccccc12 | 9.39 µM | 23.6 µM | 11.3 µM | 27.5 µM | 9.64 µM | 17.5 µM | 11.2 µM | 28.7 µM | 13.7 µM | > 50 µM | 16.8 µM | > 50 µM | 22.3 µM | > 50 µM |  |  | 13.9 µM | > 50 µM | 27.3 µM | 11 µM |
| O=[N+]([O-])/C=C\c1ccc2c(c1)OCO2 | 12.1 µM | 27.5 µM | 10.6 µM | 27.5 µM |  |  | 11.4 µM | 30.3 µM | 3.16 µM | > 100 µM | 10.3 µM | 22.2 µM | 11.5 µM | 26.4 µM | 1.37 µM | 8.14 µM | 2.73 µM | 8.06 µM | 5.02 µM | 1.95 µM |
| O=C(O)C(Cc1ccc(O)c([N+](=O)[O-])c1)N1C(=O)c2ccccc2C1=O (stereo unspecified) |  | > 100 µM |  | > 100 µM |  |  |  | > 100 µM |  | > 100 µM |  | > 100 µM |  | > 100 µM |  | > 100 µM |  | > 100 µM | > 100 µM |  |
